The experiment concerns the target human PDE10A (Homo sapiens (Human), UniProt Q9Y233). The experiment is described as follows: human PDE10A full length Scintillation Proximity Assay (SPA). The format is biochemical. The conditions noted are these: 50 nM cGMP and 50 nM [3H]-cGMP, 20 minutes at room temperature; read-out: PDE10A inhibition IC50. Here is the method: The following test was carried out in order to determine the activity of the compounds of the present invention.
The human PDE10A full length assay was performed in 96-well micro titer plates. […] Non-specific activity was tested without the enzyme. The reaction was initiated by the addition of the substrate solution (cGMP and [^3H]-cGMP) and allowed to progress for 20 minutes at room temperature. The reaction was terminated by adding 25 μl of YSi-SPA scintillation beads (GE Healthcare, cat. # RPNQ0150) in 18 mM zinc sulphate solution (stop reagent). After 1 h under shaking, the plate was centrifuged one minute at 170 g to allow beads to settle. Afterwards, radioactive counts were measured on a Perkin Elmer TopCount Scintillation plate reader.
(In general: In a scintillation proximity assay essentially only radioactivity close to the scintillant gives light.)

The values below come from patent publication US8703768B2, “Nitrogen containing heteroaryl compounds” (Hoffmann-La Roche Inc., priority 2010, dated 2014).

In general, IC50 refers to the midpoint of a concentration-inhibition curve.

Each structure is given as a SMILES string.

human PDE10A, sequence (Q9Y233 other isoform, or with tags, fused parts or gaps): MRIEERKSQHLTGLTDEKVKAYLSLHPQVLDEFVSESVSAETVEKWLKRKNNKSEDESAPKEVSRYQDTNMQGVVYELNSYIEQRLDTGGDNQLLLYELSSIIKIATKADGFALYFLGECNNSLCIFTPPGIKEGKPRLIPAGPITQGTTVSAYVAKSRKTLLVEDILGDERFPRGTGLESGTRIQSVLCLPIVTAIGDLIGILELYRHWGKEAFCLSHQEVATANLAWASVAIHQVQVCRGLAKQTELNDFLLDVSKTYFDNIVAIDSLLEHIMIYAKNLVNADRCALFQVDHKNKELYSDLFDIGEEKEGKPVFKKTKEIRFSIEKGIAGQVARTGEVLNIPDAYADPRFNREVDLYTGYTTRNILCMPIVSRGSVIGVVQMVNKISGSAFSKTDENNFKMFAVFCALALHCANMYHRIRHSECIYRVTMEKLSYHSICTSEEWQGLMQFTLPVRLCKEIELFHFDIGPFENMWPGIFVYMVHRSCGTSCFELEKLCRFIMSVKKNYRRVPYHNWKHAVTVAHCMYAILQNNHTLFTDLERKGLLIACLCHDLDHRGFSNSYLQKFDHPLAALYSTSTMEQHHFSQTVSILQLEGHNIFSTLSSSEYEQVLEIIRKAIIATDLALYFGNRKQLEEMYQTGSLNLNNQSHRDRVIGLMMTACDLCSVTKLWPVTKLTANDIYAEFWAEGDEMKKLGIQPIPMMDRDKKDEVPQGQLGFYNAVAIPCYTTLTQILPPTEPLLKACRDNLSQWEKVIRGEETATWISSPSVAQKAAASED

With `CCCN(CCC)C(=O)c1c(NC(=O)c2nc(C3CC3)cnc2Nc2cncnc2)cnn1C` [Example 222, 6-Cyclopropyl-3-(pyrimidin-5-ylamino)-pyrazine-2-carboxylic acid (5-dipropylcarbamoyl-1-methyl-1H-pyrazol-4-yl)-amide], the IC50 amounted to 42.5 nM.
To `CNC(=O)c1c(F)cc(F)cc1NC(=O)c1nc(C2CC2)cnc1Nc1cncnc1` [Example 299, 6-Cyclopropyl-3-(pyrimidin-5-ylamino)-pyrazine-2-carboxylic acid (3,5-difluoro-2-methylcarbamoyl-phenyl)-amide] belongs 0.3 nM.
Take `CCN(CC)C(=O)c1c(NC(=O)c2nc(C3CC3)cnc2Nc2cncnc2)cnn1C` [Example 228, 6-Cyclopropyl-3-(pyrimidin-5-ylamino)-pyrazine-2-carboxylic acid (5-diethylcarbamoyl-1-methyl-1H-pyrazol-4-yl)-amide]: the IC50 came out at 38 nM.
Regarding `CCN(C)C(=O)c1ncccc1NC(=O)c1nc(C2CC2)cnc1Nc1cncnc1` [Example 199, 6-Cyclopropyl-3-(pyrimidin-5-ylamino)-pyrazine-2-carboxylic acid [2-(ethyl-methyl-carbamoyl)-pyridin-3-yl]-amide], the IC50 came to 6.2 nM.
On to `O=C(NCC(O)CO)c1ccncc1NC(=O)c1nc(C2CC2)ccc1Nc1cncnc1` (centres unmarked) [Example 69, 6-Cyclopropyl-3-(pyrimidin-5-ylamino)-pyridine-2-carboxylic acid [4-(2,3-dihydroxy-propylcarbamoyl)-pyridin-3-yl]-amide], for which the IC50 came out at 4.1 nM.
For `CN(C)C(=O)c1cc(F)ccc1NC(=O)c1nc(C2CC2)cnc1Nc1cncnc1` [Example 298, 6-Cyclopropyl-3-(pyrimidin-5-ylamino)-pyrazine-2-carboxylic acid (2-dimethylcarbamoyl-4-fluoro-phenyl)-amide], the IC50 worked out at 7.8 nM.
With `CC1COCCN1C(=O)c1ncccc1NC(=O)c1nc(C2CC2)cnc1Nc1cncnc1` (centres unmarked) [Example 254, 6-Cyclopropyl-3-(pyrimidin-5-ylamino)-pyrazine-2-carboxylic acid [2-(3-methyl-morpholine-4-carbonyl)-pyridin-3-yl]-amide], the IC50 turned out to be 31.7 nM.
In the case of `CNC(=O)c1c(NC(=O)c2nc(CC(C)C)ncc2Nc2cncnc2)cnn1C` [Example 332, 2-Isobutyl-5-(pyrimidin-5-ylamino)-pyrimidine-4-carboxylic acid (1-methyl-5-methylcarbamoyl-1H-pyrazol-4-yl)-amide], the IC50 was found to be 12.8 nM.
With `Cn1ncc(NC(=O)c2nc(C3CC3)cnc2Nc2cncnc2)c1C(=O)NC[C@H]1CCCO1` [Example 256, 6-Cyclopropyl-3-(pyrimidin-5-ylamino)-pyrazine-2-carboxylic acid (1-methyl-5-{[(R)-1-(tetrahydro-furan-2-yl)methyl]-carbamoyl}-1H-pyrazol-4-yl)-amide], the IC50 is 3.3 nM.
Regarding `COCCN(C)C(=O)c1ncncc1NC(=O)c1nc(C2CC2)cnc1Nc1cncnc1` [Example 118, 5-{[6-Cyclopropyl-3-(pyrimidin-5-ylamino)-pyrazine-2-carbonyl]-amino}-pyrimidine-4-carboxylic acid (2-methoxy-ethyl)-methyl-amide], the concentration for half-maximal inhibition (IC50) was 89.7 nM.
On to `CNC(=O)c1c(NC(=O)c2nc(C(C)C)ncc2Nc2cncc(F)c2)cnn1C` [Example 190, 5-(5-Fluoro-pyridin-3-ylamino)-2-isopropyl-pyrimidine-4-carboxylic acid (1-methyl-5-methylcarbamoyl-1H-pyrazol-4-yl)-amide], for which the IC50 is 24 nM.
In the case of `Cn1ncc(NC(=O)c2nc(C3CC3)cnc2Nc2cncnc2)c1C(=O)NC1(C)COC1` [Example 136, 6-Cyclopropyl-3-(pyrimidin-5-ylamino)-pyrazine-2-carboxylic acid [1-methyl-5-(3-methyl-oxetan-3-ylcarbamoyl)-1H-pyrazol-4-yl]-amide], the IC50 worked out at 3.6 nM.
On to `O=C(NC1COC1)c1ccncc1NC(=O)c1nc(C2CC2)cnc1Nc1cncnc1` [Example 106, 6-Cyclopropyl-3-(pyrimidin-5-ylamino)-pyrazine-2-carboxylic acid [4-(oxetan-3-ylcarbamoyl)-pyridin-3-yl]-amide], for which the IC50 came out at 2.6 nM.
In the case of `CN(CC1CCCO1)C(=O)c1c(NC(=O)c2nc(C3CC3)cnc2Nc2cncnc2)cnn1C` (centres unmarked) [Example 257, 6-Cyclopropyl-3-(pyrimidin-5-ylamino)-pyrazine-2-carboxylic acid {1-methyl-5-[methyl-(tetrahydro-furan-2-ylmethyl)-carbamoyl]-1H-pyrazol-4-yl}-amide], the IC50 turned out to be 67.1 nM.
Consider `CC(C)(O)CNC(=O)c1c(NC(=O)c2nc(C3CC3)cnc2Nc2cncnc2)cnn1CCC(F)(F)F` [Example 172, 6-Cyclopropyl-3-(pyrimidin-5-ylamino)-pyrazine-2-carboxylic acid [5-(2-hydroxy-2-methyl-propylcarbamoyl)-1-(3,3,3-trifluoro-propyl)-1H-pyrazol-4-yl]-amide], for which the IC50 was 12.9 nM.
In the case of `CNC(=O)c1c(C)cccc1NC(=O)c1nc(C2CC2)cnc1Nc1cncnc1` [Example 224, 6-Cyclopropyl-3-(pyrimidin-5-ylamino)-pyrazine-2-carboxylic acid (3-methyl-2-methylcarbamoyl-phenyl)-amide], the IC50 worked out at 18.1 nM.
As for `CC(C)c1cc(C(=O)N2CCOCC2)c(NC(=O)c2nc(C3CC3)ccc2Nc2cncnc2)s1` [Example 91, 6-Cyclopropyl-3-(pyrimidin-5-ylamino)-pyridine-2-carboxylic acid [5-isopropyl-3-(morpholine-4-carbonyl)-thiophen-2-yl]-amide], the IC50 worked out at 27.5 nM.
To `Cn1cc(NC(=O)c2nc(C3CC3)ccc2Nc2cncnc2)c(C(=O)N2CCCC2)n1` [Example 21, 6-Cyclopropyl-3-(pyrimidin-5-ylamino)-pyridine-2-carboxylic acid [1-methyl-3-(pyrrolidine-1-carbonyl)-1H-pyrazol-4-yl]-amide] belongs 7 nM.
Turning to `CC(C)c1ccc(NC(=O)c2nc(C3CC3)cnc2Nc2cncnc2)c(C(=O)NCC(C)(C)O)c1` [Example 207, 6-Cyclopropyl-3-(pyrimidin-5-ylamino)-pyrazine-2-carboxylic acid [2-(2-hydroxy-2-methyl-propylcarbamoyl)-4-isopropyl-phenyl]-amide], the IC50 was 1.1 nM.
With `CCn1ncc(NC(=O)c2nc(C3CC3)cnc2Nc2cncnc2)c1C(=O)NCC(C)(C)O` [Example 132, 6-Cyclopropyl-3-(pyrimidin-5-ylamino)-pyrazine-2-carboxylic acid [1-ethyl-5-(2-hydroxy-2-methyl-propylcarbamoyl)-1H-pyrazol-4-yl]-amide], the IC50 was 16.9 nM.
With `CNC(=O)c1nn(C)cc1NC(=O)c1nc(NCCOC)ncc1Nc1cncnc1` [Example 126, 2-(2-Methoxy-ethylamino)-5-(pyrimidin-5-ylamino)-pyrimidine-4-carboxylic acid (1-methyl-3-methylcarbamoyl-1H-pyrazol-4-yl)-amide], the IC50 is 122 nM.
Next, `CC(C)(O)CNC(=O)c1cc(F)c(F)cc1NC(=O)c1nc(C2CC2)cnc1Nc1cncnc1` [Example 110, 6-Cyclopropyl-3-(pyrimidin-5-ylamino)-pyrazine-2-carboxylic acid [4,5-difluoro-2-(2-hydroxy-2-methyl-propylcarbamoyl)-phenyl]-amide]: 0.6 nM; `CN1CC(NC(=O)c2c(NC(=O)c3nc(C4CC4)cnc3Nc3cncnc3)cnn2C)C1` [Example 315, 6-Cyclopropyl-3-(pyrimidin-5-ylamino)-pyrazine-2-carboxylic acid [1-methyl-5-(1-methyl-azetidin-3-ylcarbamoyl)-1H-pyrazol-4-yl]-amide]: 11.1 nM.
Turning to `CNC(=O)c1nn(-c2ccccc2)cc1NC(=O)c1nc(C2CC2)ccc1Nc1cncnc1` [Example 25, 6-Cyclopropyl-3-(pyrimidin-5-ylamino)-pyridine-2-carboxylic acid (3-methylcarbamoyl-1-phenyl-1H-pyrazol-4-yl)-amide], the IC50 was 1860 nM.
Next, `CC(C)(O)CNC(=O)c1c(NC(=O)c2nc(C3CC3)cnc2Nc2cncnc2)cnn1CC(F)(F)F` [Example 175, 6-Cyclopropyl-3-(pyrimidin-5-ylamino)-pyrazine-2-carboxylic acid [5-(2-hydroxy-2-methyl-propylcarbamoyl)-1-(2,2,2-trifluoro-ethyl)-1H-pyrazol-4-yl]-amide]: 25 nM; `CNC(=O)c1c(NC(=O)c2nc(Cl)ccc2Nc2cncnc2)cnn1C` [Example 166, 6-Chloro-3-(pyrimidin-5-ylamino)-pyridine-2-carboxylic acid (1-methyl-5-methylcarbamoyl-1H-pyrazol-4-yl)-amide]: 335 nM; `CN(CCO)C(=O)c1ccncc1NC(=O)c1nc(C2CC2)ccc1Nc1cncnc1` [Example 73, 6-Cyclopropyl-3-(pyrimidin-5-ylamino)-pyridine-2-carboxylic acid {4-[(2-hydroxy-ethyl)-methyl-carbamoyl]-pyridin-3-yl}-amide]: 18.9 nM.
To `O=C(Nc1cnccc1C(=O)N1CCCC1)c1nc(C2CC2)ccc1Nc1cncnc1` [Example 22, 6-Cyclopropyl-3-(pyrimidin-5-ylamino)-pyridine-2-carboxylic acid [4-(pyrrolidine-1-carbonyl)-pyridin-3-yl]-amide] belongs 18.7 nM; to `CNC(=O)c1c(NC(=O)c2nc(C(C)C)ncc2Nc2cccnc2)cnn1C` [Example 186, 2-Isopropyl-5-(pyridin-3-ylamino)-pyrimidine-4-carboxylic acid (1-methyl-5-methylcarbamoyl-1H-pyrazol-4-yl)-amide], 8.2 nM.
